Tested on in the first data set: not listed separately
Briefly: Selectivity index, ratio of CC50 for African green monkey Vero cells to IC50 for HSV1/F. It counts as toxicity. The following applies: read-out: Ratio CC50/IC50.
For the compound `Nc1nc2c(ncn2COCCO)c(=O)[nH]1` [ACYCLOVIR], the selectivity ratio was more than 1330.

In the case of `CCCCCCCCCC(=O)/C=C/c1c(CCCCCCCCC)oc2c(O)ccc(-c3oc4cc(O)cc(O)c4c(=O)c3O[C@@H]3O[C@H](CO)[C@H](O)[C@H](O)[C@H]3O)c12`, the selectivity ratio was more than 11.3.

As for `CCCCCCCCCc1oc2c(O)ccc(-c3oc4cc(O)cc(O)c4c(=O)c3O[C@@H]3O[C@H](CO)[C@H](O)[C@H](O)[C@H]3O)c2c1C=O`, the selectivity ratio is more than 16.1.

Another data set has as its system Human alphaherpesvirus 1. The data set is described as follows: Antiviral activity against HSV1/F infected in African green monkey Vero cells assessed as inhibition of plaque formation after 24 hrs by crystal violet staining-based assay. Type of data set: functional, organism-based. To be noted: Human alphaherpesvirus 1, strain F.
As a reminder, the IC50 is the concentration that inhibits the measured activity by half. As to `Nc1nc2c(ncn2COCCO)c(=O)[nH]1` [ACYCLOVIR], the IC50 worked out at 0.15 µM.

Regarding `CCCCCCCCCC(=O)/C=C/c1c(CCCCCCCCC)oc2c(O)ccc(-c3oc4cc(O)cc(O)c4c(=O)c3O[C@@H]3O[C@H](CO)[C@H](O)[C@H](O)[C@H]3O)c12`, the 50% inhibitory concentration (IC50) worked out at 17.7 µM.

As for `CCCCCCCCCc1oc2c(O)ccc(-c3oc4cc(O)cc(O)c4c(=O)c3O[C@@H]3O[C@H](CO)[C@H](O)[C@H](O)[C@H]3O)c2c1C=O`, the IC50 was determined as 12.4 µM.

Tested on in another data set: not listed separately
Briefly: Cytotoxicity against African green monkey Vero cells assessed as decrease in cell viability after 24 hrs by CellTiter-Glo luminescent assay. Type of data set: cell-based. The following applies: chlorocebus sabaeus. For orientation: Cellular ATP, detected with luciferase, serves as a proxy for viable cell number.
Usually CC50 stands for the concentration that lowers cell viability or growth by half. Consider `Nc1nc2c(ncn2COCCO)c(=O)[nH]1` [ACYCLOVIR], for which the CC50 at 24 h is more than 200 µM.

In the case of `CCCCCCCCCC(=O)/C=C/c1c(CCCCCCCCC)oc2c(O)ccc(-c3oc4cc(O)cc(O)c4c(=O)c3O[C@@H]3O[C@H](CO)[C@H](O)[C@H](O)[C@H]3O)c12`, the CC50 at 24 h was more than 200 µM.

On to `CCCCCCCCCc1oc2c(O)ccc(-c3oc4cc(O)cc(O)c4c(=O)c3O[C@@H]3O[C@H](CO)[C@H](O)[C@H](O)[C@H]3O)c2c1C=O`, for which the CC50 at 24 h was more than 200 µM.

These data come from ChEMBL document CHEMBL4130537, “Houttuynoid M, an Anti-HSV Active Houttuynoid from Houttuynia cordata Featuring a Bis-houttuynin Chain Tethered to a Flavonoid Core” (J Nat Prod, 2017).
